Columns and labels:
L. reuteri = conditions: Rattanaprasert et al. 2014; cited from earlier work
B. longum = assay: free sugar consumption by intestinal microbiota; assay type: cell-based; parameters: key: *: predicted, but not observed; ND: Not Determined; conditions: predicted, but not observed
From the text: (§1) A number of bacterial species are provided in Table 2, since the inventors have discovered preferred carbon source(s) for certain bacteria. Certain embodiments of the invention described herein would include one or more of any of the species found in Table 2.

B. infantis = assay: free sugar consumption by intestinal microbiota; assay type: cell-based; parameters: key: *: predicted, but not observed; ND: Not Determined; conditions: predicted, but not observed
From the text: as §1

B. bifidum = assay: free sugar consumption by intestinal microbiota; assay type: cell-based; parameters: key: *: predicted, but not observed; ND: Not Determined; conditions: predicted, but not observed
From the text: as §1

B. breve = assay: free sugar consumption by intestinal microbiota; assay type: cell-based; parameters: key: *: predicted, but not observed; ND: Not Determined; conditions: predicted, but not observed
From the text: as §1

SMILES	growth of Lactobacillus reuteri on the sugar (L. reuteri)	preferences for free sugar consumption (B. longum)	preferences for free sugar consumption (B. infantis)	preferences for free sugar consumption (B. bifidum)	preferences for free sugar consumption (B. breve)
O=C[C@@H](O)[C@H](O)[C@H](O)CO [Arabinose]	known to grow on arabinose	–	–	–	–
C[C@H](O)[C@H](O)[C@@H](O)[C@@H](O)C=O [Rhamnose]	utilize rhamnose as a terminal electron acceptor to improve its growth	–	–	–	–
C[C@H](O)[C@@H](O)[C@@H](O)[C@H](O)C=O [Fucose]	–	*	*	*	*

Reference: patent publication US20200245667A1, “OLIGOSACCHARIDE COMPOSITIONS AND THEIR USE DURING TRANSITIONAL PHASES OF THE MAMMALIAN GUT MICROBIOME” (EVOLVE BIOSYSTEMS, INC., priority 2017, published 2020)
